Experimental data taken from patent US20170280720A1, “ARGININE […] INHIBITORS AND USES THEREOF” (EPIZYME, INC., priority 2014, published 2017).

Target: T1, Human CARM1 (PRMT4) (Homo sapiens, UniProt Q86X55)
T1 construct: Flag-CARM1-His; made in house; host or cells: HEK 293F cells (BacMam baculovirus, pFastBacMam)
T1 sequence (Q86X55 2-585 isoform Q86X55-1): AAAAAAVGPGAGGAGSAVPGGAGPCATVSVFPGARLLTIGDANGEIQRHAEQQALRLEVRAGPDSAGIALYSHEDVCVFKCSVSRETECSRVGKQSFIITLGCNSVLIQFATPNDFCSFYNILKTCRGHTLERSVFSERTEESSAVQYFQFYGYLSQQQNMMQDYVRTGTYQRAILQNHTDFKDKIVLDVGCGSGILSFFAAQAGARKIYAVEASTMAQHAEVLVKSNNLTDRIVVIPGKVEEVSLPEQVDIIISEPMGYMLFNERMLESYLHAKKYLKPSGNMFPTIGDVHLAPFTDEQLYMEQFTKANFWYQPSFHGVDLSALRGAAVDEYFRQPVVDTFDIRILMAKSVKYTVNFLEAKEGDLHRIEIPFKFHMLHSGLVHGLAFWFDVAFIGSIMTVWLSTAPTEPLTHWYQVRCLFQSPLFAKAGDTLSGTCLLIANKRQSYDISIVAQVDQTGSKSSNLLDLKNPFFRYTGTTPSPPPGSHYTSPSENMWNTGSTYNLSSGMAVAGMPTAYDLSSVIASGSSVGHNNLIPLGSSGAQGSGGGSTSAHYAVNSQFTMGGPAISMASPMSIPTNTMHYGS
Assay: CARM1 biochemical assay (3H-SAM Flashplate, peptide substrate)
Settings: read-out: CARM1_ IC50
Method in brief: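 FLAG/His-tagged human CARM1 (isoform 1, Δ539-561, baculovirus-expressed), 0.25 nM, preincubated 30 min at room temperature with compound (2% DMSO) in 20 mM Bicine pH 7.6, then reacted with 30 nM 3H-SAM and 250 nM biotinylated H3 16-30 peptide (R26 monomethyl). Stopped with 300 uM cold SAM; labelled peptide captured on streptavidin Flashplate; % inhibition versus DMSO and 1 mM SAH controls fitted to a 4- or 3-parameter curve.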

Row | IC50 | Structure (SMILES)
1 | 23.9 nM | CNCCN(C)Cc1cccc(-c2cc(C(=O)NCCCCCC(=O)NCC3CCOCC3)c3cnn(C(C)C)c3n2)c1 [Compound 112]
2 | 17.9 nM | CNCCN(C)Cc1cccc(-c2nc(NC3CC3)c3cnn(C4CC4)c3n2)c1 [Compound 114]
3 | 6870 nM | COc1ccccc1-c1nc2ccc(-c3ccc(CNCCN)cc3)cc2[nH]1 [Compound 115]
4 | 23.4 nM | CC(C)n1ncc2c(NC(=O)N(C)C)cc(-c3cccc(CN(C)CCN)c3)nc21 [Compound 116]
5 | 33.4 nM | CNCCN(C)Cc1cccc(-c2cc(C(=O)NCCCCCC(=O)NCc3ccn(C)n3)c3cnn(C(C)C)c3n2)c1 [Compound 117]
6 | 18 nM | CNCCN(C)Cc1cccc(-c2cc(C(=O)NCCCCC(=O)NCC3CCOCC3)c3cnn(C(C)C)c3n2)c1 [Compound 118]
7 | 4.77 nM | CN(CCN)Cc1cccc(-c2nc(N(C)C3CCOCC3)c3cnn(C4CC4)c3n2)c1 [Compound 119]
8 | 35.6 nM | CNCCN(C)Cc1cccc(-c2cc(C(=O)NCc3cc(C)nn3C)c3cnn(C(C)C)c3n2)c1 [Compound 120]
9 | 70.2 nM | CNCCN(C)Cc1cccc(-c2cc(NC)c3cnn(C(C)C)c3n2)c1 [Compound 121]
10 | 13.5 nM | CNCCN(C)Cc1cccc(-c2cc(C(=O)NCCCCC(=O)NCc3ccn(C)n3)c3cnn(C(C)C)c3n2)c1 [Compound 122]
11 | 29.6 nM | CNCCN(C)Cc1cccc(-c2cc(NC(=O)N(C)C)c3cnn(C(C)C)c3n2)c1 [Compound 123]
12 | 75.5 nM | CNCCN(C)Cc1cccc(-c2cc(OC)c3cnn(C(C)C)c3n2)c1 [Compound 124]
13 | 75.8 nM | CC(C)n1ncc2c(C(=O)N[C@@H](C)c3ccccc3)cc(-c3cccc(CNCCN)c3)cc21 [Compound 125]
